US20160221932A1, “Methods and Uses of Melatonin Ligands” (priority 2013, published 2016)
Entries after “also recorded” stand apart in the source; their conditions may differ.

Assays:
human-cloned MT1 = target: T1, human-cloned MT1 (Homo sapiens, UniProt P48039); experiment: impedance assay in CHO cells expressing human-cloned MT1 (functional activity); type: cell-based; conditions: for activity for the MLT receptor subtype MT1 (in words): CHO cells; for MT1 Activity: key: A = ago0nist; PA = partial agonist; ANT = antagonits
T1 construct: expressed in transfected cells
T1 sequence (P48039 whole entry): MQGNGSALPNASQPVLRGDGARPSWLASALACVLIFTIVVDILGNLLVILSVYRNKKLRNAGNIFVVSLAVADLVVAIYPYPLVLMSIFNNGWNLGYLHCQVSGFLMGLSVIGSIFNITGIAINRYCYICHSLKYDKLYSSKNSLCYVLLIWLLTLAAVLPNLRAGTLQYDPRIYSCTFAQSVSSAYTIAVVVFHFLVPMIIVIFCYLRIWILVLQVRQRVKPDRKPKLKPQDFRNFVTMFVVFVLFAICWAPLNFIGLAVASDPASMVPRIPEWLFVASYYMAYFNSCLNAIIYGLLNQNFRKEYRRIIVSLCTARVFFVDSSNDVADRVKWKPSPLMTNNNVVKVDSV

Wistar rats = experiment: hot plate test; type: in vivo, rat; conditions: for withdrawal temperature compared to untreated rats: summary statement, dose not stated
Procedure: Animals: Wistar rats (150-250 g, Charles-River Saint-Constant, Quebec, Canada) were used for the formalin test, hot plate test and L5-L6 spinal nerves ligature model. The animals were housed at constant room temperature and humidity under a 12 h light/dark cycle (lights on at 7 AM). Food and water were available ad libitum. Hot plate test: The hot-plate test was performed by using an electronically controlled hot-plate (Ugo Basile, Italy). The initial temperature was 38° C. A near linear increase in temperature (3° C. per min) was obtained by turning the heating adjustment to maximum. The temperature at which the fast hindpaw lick occurred was recorded as the nociceptive end-point. If no hindpaw lick was observed, the test was terminated at 52° C., and this cut-off value was used in the analysis. The plate was wiped with a wet cloth, and a fan located behind the plate allowed rapid cooling so that testing could be conducted every 7.5 min. Statistical Analysis: Data analysis was done using SigmaPlot 12 (Systat Software, Inc.). Two-way ANOVA for repeated measures was used to analyze data from L5-L6 models using treatments (between) and testing time (within) as factors. One-way ANOVA was used to analyze AUC in the L5-L6 spinal nerves ligation model. One-way ANOVA was used for formalin and hot-plate tests. Post-hoc analyses were performed using Bonferroni t-test comparisons or Student-Newman-Keuls (SNK) test. All data are expressed as mean±Standard Error of the Mean (SEM). P<0.05 was considered significant.

[1] = test system: rats with L5-L6 spinal nerves ligation; experiment: L5-L6 spinal nerves ligature model, von Frey paw withdrawal threshold; type: in vivo, rat; conditions: for AUC of the antiallodynic effect across 8 h: mean±SEM, VEH 36.24±1.8 g; for AUC antiallodynic effect compared with GBP 100 mg/kg / AUC antiallodynic effect compared with MLT 150 mg/kg: doses of 20 and 40 mg/kg; for tactile allodynia in L5-L6 nerve ligated rats / analgesic effect in allodynic rats: summary statement; for tactile allodynia in L5-L6 nerve ligated rats: hindpaw withdrawal threshold to mechanical stimulation; for analgesic effect in allodynic rats: hindpaw withdrawal threshold vs untreated allodynic rats
Procedure: Animals: Wistar rats (150-250 g, Charles-River Saint-Constant, Quebec, Canada) were used for the formalin test, hot plate test and L5-L6 spinal nerves ligature model. The animals were housed at constant room temperature and humidity under a 12 h light/dark cycle (lights on at 7 AM). Food and water were available ad libitum.
L5-L6 Spinal Nerves Ligature: Nerve injury results in abnormal pain perception, known as neuropathic pain, which is associated with hyperalgesia (high pain sensibility) and allodynia (pain perception induced by innocuous stimuli) (Campbell and Meyer, 2006). The rat model for neuropathic pain develop by Kim and Chung (Kim and Chung, 1992) was used in which the L5 and L6 spinal nerves were ligated and two weeks later allodynia was measured by paw stimulation with von Frey filaments. Briefly, animals were anesthetized with a mixture of ketamine/xylazine/acepromazine (i.p.). Following surgical preparation and exposure of the dorsal vertebral column, the left L5 and L6 spinal nerves were exposed and tightly ligated with 3.0 chromic catgut suture distal to the dorsal root ganglion. For sham-operated rats, the nerves were exposed but not ligated. The incisions were closed using 3.0 vicryl sutures, and the animals were allowed to recover for 13 days.
On day 14 after surgery, rats were singularly placed in a test chamber (clear plastic, wire mesh-bottomed cage) and allowed to acclimatize for 30-40 min. Von Frey filaments (Stoelting, Wood Dale, Ill., USA) were used to measure the 50% paw withdrawal threshold using the up and down method by (Chaplan et al., 1994). […] Lifting of the paw indicated a positive response and prompted the use of the next weaker filament, whereas absence of paw withdrawal after 5 s indicated a negative response and prompted the next filament of increasing weight. This paradigm continued for four more measurements after the initial change of the behavioral response, or until five consecutive negative (assigned a score of 15 g), or four consecutive positive (assigned a score of 0.25 g) responses. The resulting score were used to calculate the 50% response threshold by using the formula proposed by Dixon et al., 1980.
Allodynia was considered to be present when paw withdrawal thresholds were less than 4 g. (Chaplan et al., 1994). All nerve-ligated rats were verified to be allodynic, responding to a stimulus of less than 4 g. Rats without allodynia were excluded. Following the determination of the basal response, tactile allodynia was assessed at 0.5, 1, 2, 3, 4, 5, 6, 7 and 8 h post-administration for each treatment below described.
[…] […] Another group of rats received only the vehicle (VEH) consisting on a 70% DMSO/saline solution (0.9% NaCl). All treatments were administered in a single subcutaneous injection with a volume of 1 ml. Rats were tested at 0 h (basal withdrawal threshold) and 0.5, 1, 2, 3, 4, 5, 6, 7 and 8 h post-treatment administration.
Statistical Analysis: Data analysis was done using SigmaPlot 12 (Systat Software, Inc.). Two-way ANOVA for repeated measures was used to analyze data from L5-L6 models using treatments (between) and testing time (within) as factors. One-way ANOVA was used to analyze AUC in the L5-L6 spinal nerves ligation model. One-way ANOVA was used for formalin and hot-plate tests. Post-hoc analyses were performed using Bonferroni t-test comparisons or Student-Newman-Keuls (SNK) test. All data are expressed as mean±Standard Error of the Mean (SEM). P<0.05 was considered significant.

human MT1 receptor = target: T2, human MT1 receptor (Homo sapiens, UniProt P48039); experiment: 2-[125I]iodomelatonin competition binding, human MT1 in CHO cells; conditions: human MT1 stably expressed in CHO cells, calculated from IC50 by Cheng and Prusoff
T2 construct: expressed in transfected cells
T2 sequence (P48039 whole entry): as above

[2] = 20 mg/kg s.c., 30 min post treatment
[3] = 20 mg/kg s.c., 1 hour post treatment
[4] = 20 mg/kg s.c., 4 hours post treatment
[5] = 40 mg/kg, 1 hour post treatment
[6] = 40 mg/kg, 4 hours post treatment
[7] = 20 mg/kg s.c., at 3 h (5b) or 5 h (5p) post-administration
[8] = 40 mg/kg s.c., at 2 h (5b) or 5 h (5p) post-administration

SMILES	activity for the MLT receptor subtype MT1 (in words) (human-cloned MT1)	withdrawal temperature vs vehicle (Wistar rats; [2])	withdrawal temperature vs vehicle (Wistar rats; [3])	withdrawal temperature vs vehicle (Wistar rats; [4])	withdrawal temperature vs vehicle (Wistar rats; [5])	withdrawal temperature vs vehicle (Wistar rats; [6])	withdrawal temperature compared to untreated rats (Wistar rats)	AUC of the antiallodynic effect across 8 h ([1]; 5 mg/kg s.c.) [g]	AUC of the antiallodynic effect across 8 h ([1]; 10 mg/kg s.c.) [g]	duration of effect on paw withdrawal threshold, post-administration ([1]; 20 mg/kg s.c.)	reduction of the mechanical allodynia above the threshold (4 g) ([1]; 20 mg/kg s.c.)	start of increase of paw withdrawal threshold, post-administration ([1]; 20 mg/kg s.c.) [h]	highest increase in paw withdrawal threshold [1, 7] [% from basal]	AUC of the antiallodynic effect across 8 h ([1]; 20 mg/kg s.c.) [g]	duration of effect on paw withdrawal threshold, post-administration ([1]; 40 mg/kg s.c.)	reduction of the mechanical allodynia above the threshold (4 g) ([1]; 40 mg/kg s.c.)	start of increase of paw withdrawal threshold, post-administration ([1]; 40 mg/kg s.c.) [h]	highest increase in paw withdrawal threshold [1, 8] [% from basal]	AUC of the antiallodynic effect across 8 h ([1]; 40 mg/kg s.c.) [g]	AUC antiallodynic effect compared with GBP 100 mg/kg [1]	also measured
COc1cccc(N(CCNC(C)=O)c2ccccc2)c1 [5b, N-{2-[(3-Methoxyphenyl)-phenylamino]ethyl}acetamide]	partial agonist activity	significant increase of the withdrawal temperature	increase of withdrawal temperature; also recorded: increased the withdrawal temperature	significant increase of withdrawal temperature; also recorded: increased the withdrawal temperature	increase of withdrawal temperature	significant increase of withdrawal temperature	significant increase in withdrawal temperature	81.11 ± 4.8	70.24 ± 4.23	up to 5 h	reduction of the mechanical allodynia above the threshold	1	419	219.12 ± 24.13	≤ 6 h	reduction of the mechanical allodynia above the threshold	0.5	395	220.13 ± 13.65	comparable	AUC antiallodynic effect compared with MLT 150 mg/kg [1]: superior to MLT; tactile allodynia in L5-L6 nerve ligated rats [1]: reversed tactile allodynia; also recorded: reduced allodynia; analgesic effect in allodynic rats [1]: increased the analgesic effect; MT1 pKi (human MT1 receptor): 8.38
CC(=O)NCCN(c1ccc(F)cc1)c1cccc(Br)c1 [5p, N-{2-[(3-Bromophenyl)-4-fluorophenylamino]ethyl}acetamide]	antagonist	significant increase of the withdrawal temperature	increase of withdrawal temperature; also recorded: increased the withdrawal temperature	significant increase of withdrawal temperature; also recorded: increased the withdrawal temperature	increase of withdrawal temperature	significant increase of withdrawal temperature	significant increase in withdrawal temperature	89.03 ± 6.33	127.75 ± 12.08	up to 6 h	reduction of the mechanical allodynia	1	394	245.9 ± 19.9	up to 6 h	reduction of the mechanical allodynia	1	427.65	230.33 ± 17.69	comparable	MT1 Activity (human-cloned MT1; intrinsic activity, human MT1 in CHO cells): ANT; duration of effect on paw withdrawal threshold, post-administration ([1]; 10 mg/kg s.c.): up to 3 h; start of increase of paw withdrawal threshold, post-administration ([1]; 10 mg/kg s.c.): 1 h; AUC antiallodynic effect compared with MLT 150 mg/kg [1]: greater antiallodynic effect; tactile allodynia in L5-L6 nerve ligated rats [1]: reduced allodynia; also recorded: reversed tactile allodynia; analgesic effect in allodynic rats [1]: increased the analgesic effect; Ki (human MT1 receptor; read-out: MT1 pKi (converted)): 178 nM
